Laboratory results as given in patent publication US8748598B2, “Analogs of 3-O-acetyl-11-keto-beta-boswellic acid” (Laila Nutraceuticals, priority 2004, dated 2014).
≈ marks a conversion by molar mass, not a printed value.

Assays:
DU145 = assay: In vitro antitumor activity, DU145; assay type: cell-based; settings: Homo sapiens, DU-145, read-out: Inhibition of cell proliferation (IC50)
Method: (§1) MTT [3-(4,5-dimethylthiazol-2-yl)-2,5-diphenyltetrazolium bromide] incorporation based cell proliferation assay was performed as described previously (Reference). The cytotoxic efficacy of some analogs was evaluated in different cell lines by MTT cell proliferation assay kit (Roche Applied Sciences, Germany). The assay was carried out according to the instruction provided by the vendor. Briefly, in brief, equal numbers of cells was plated in 96-well flat-bottomed plates in 100 μl of medium and were exposed to different analogs selected from 1 to 63 at various concentrations up to 10 μg/ml for a period of three days. Vehicle control culture wells received only a maximum of 0.5% DMSO. Thereafter, 0.5 mg/ml of MTT reagent was added to each well and the microplate was incubated further for 4 h at 37° C. in presence of 5% CO2. Finally, the cells were solubilized by adding solubilizing solution and allowed to incubate at 37° C. overnight. After complete solubilization of the formazan crystals the absorbance was read at 540 nm in a microplate reader (BioRad, USA).

MCF-7 = assay: MTT cell proliferation assay, MCF-7; assay type: cell-based, human; settings: Homo sapiens, MCF7; Table 4
How it was run: (§2)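 Cells exposed three days to compounds at concentrations up to 10 μg/ml (≤0.5% DMSO), then 0.5 mg/ml MTT for 4 h at 37 °C. Solubilized formazan read at 540 nm; IC50 calculated from quadruplicate wells.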

MDA-MB-231 [1] = assay: MTT cell proliferation assay, MDA-MB-231; assay type: cell-based, human; settings: Homo sapiens, MDA-MB-231; Table 4
How it was run: as §2

[2] = system: B16 murine melanoma cells; assay: Cell cycle analysis by flow cytometry; assay type: cell-based; settings: 24 h
Method: For flow cytometry, cells were harvested after the treatment period, washed with phosphate buffered saline (PBS), and adjusted the cell count at 2×10^6 cells per milliliter. The cells were fixed in 70% ethanol for 30 min at 4° C. Cells were then washed two times with PBS and stained with 0.5 μg/ml propidium iodide at 37° C. for 30 min and analyzed by flow cytometry. Data were acquired on a FACS Scan flow cytometer (Becton Dickinson) and analyzed by using the Cellquest software.

[3] = system: Human umbilical vein endothelial cells (HUVEC); assay: In vitro capillary-like tube formation assay; assay type: cell-based; settings: HUVEC on Cultrex, 1, 2.5 and 5 μg/ml, 16 h
Method: In vitro capillary formation assay was performed with Human umbilical vein endothelial cells (HUVEC), cultured on 10 mg/ml basement membrane extract (BME—Cultrex®, R&D Systems, USA) bed. The protocol of in vitro endothelial tube formation assay was the same as described earlier with some modifications (Reference). Briefly, four hundred microliters of Cultrex was coated at 4° C. in each well of 24-well culture plate and allowed to gel at 37° C. for 1 h. HUVECs were plated at a density of 7.5×10^4 cells per well with 400 μl of DMEM supplemented with 10% fetal bovine serum and 4.5 g/l D-glucose. The cells were then treated with either 0.5% DMSO or different concentrations of LI-51255 for 16 hours. Pictures were taken under a Nikon Eclipse TS 100 microscope equipped with a Nikon Coolpix camera (FIG. 1B).

SKBR3 = assay: In vitro antitumor activity, SKBR3; assay type: cell-based; settings: Homo sapiens, SK-BR-3, read-out: Inhibition of cell proliferation (IC50)
Method: as §1

B16 = assay: MTT cell proliferation assay, B16; assay type: cell-based, mouse; settings: Mus musculus, B16; read-out: Inhibition of cell proliferation (IC50)
Method: as §1, with “USA). The results (mean OD±SD) obtained from quadruplicate wells were used in calculation to determine the inhibition of cell proliferation (50% of inhibitory concentration, IC50) of the test compounds.” for “USA).”

A2058 = assay: In vitro antitumor activity, A2058; assay type: cell-based; settings: Homo sapiens, read-out: Inhibition of cell proliferation (IC50)
Method: as §1

A375 = assay: MTT cell proliferation assay, A375; assay type: cell-based, human; settings: Homo sapiens, A-375; A375; read-out: Inhibition of cell proliferation (IC50)
Method: as §1, with “USA). The results (mean OD±SD) obtained from quadruplicate wells were used in calculation to determine the inhibition of cell proliferation (50% of inhibitory concentration, IC50) of the test compounds.” for “USA).”

HT-29 = assay: In vitro antitumor activity, HT-29; assay type: cell-based; settings: Homo sapiens, read-out: Inhibition of cell proliferation (IC50)
Method: as §1

A549 = assay: MTT cell proliferation assay, A549; assay type: cell-based, human; settings: Homo sapiens, A549; read-out: Inhibition of cell proliferation (IC50)
Method: as §1, with “USA). The results (mean OD±SD) obtained from quadruplicate wells were used in calculation to determine the inhibition of cell proliferation (50% of inhibitory concentration, IC50) of the test compounds.” for “USA).”

MDA-MB-231 [4] = assay: MDA-MB-231 clone (colony) formation in vitro; assay type: cell-based, human; settings: 1.0, 1.5, 2.0, 2.5 μg/ml, 8 days
Method: Inhibitory efficacy in clone formation of LI-51255 was tested by following the procedure described earlier with some modifications (Wu et al. 2005). Briefly, MDA-MB-231 cells were harvested and seeded into 6-well plates (100 cells/ml). The cells were allowed to grow for 4 days and thereafter, the cells were incubated with DMEM containing either 0.5% DMSO or 25 μg/ml AKBA or different concentrations (1.0, 1.5, 2.0, 2.5 μg/ml) of LI-51255 for further 8 days. Fresh medium containing test agents was replaced at every 24 h. Finally, the wells were washed three times with PBS and fixed in methanol for 15 min. The cells were stained with Giemsa stain and observed under microscope. The image of the stained wells were captured digitally (Kodak Image Station 4000MM, Carestream Health Inc., New Haven, Conn.) and number of colonies were counted and analyzed by using NIH Image J software.

AKT pathway = AKT pathway western immunoblot in MDA-MB-231 cells; assay type: cell-based, human; settings: MDA-MB-231, 10 μg/ml, 0-240 min
Method: Equal number of MDA-MB-231 human breast tumor cells (ER-) was plated in 25 cm^2 cell culture flasks. The cells treated with either 0.5% DMSO as vehicle or 10 μg/ml of LI-51255 for 0, 5, 10, 20, 30, 60, 120 and 240 min. The cells were lysed in cell lysis buffer.

- IC50 (DU145): 4.24 mg/L (≈ 7.64 µM)
- IC50 (MCF-7): 13 mg/L (≈ 23.4 µM)
- IC50 (MDA-MB-231 [1]): 3.45 mg/L (≈ 6.22 µM)
- IC50 (SKBR3): 5.3 mg/L (≈ 9.55 µM)
- IC50 (B16): 4.35 mg/L (≈ 7.84 µM)
- IC50 (A2058): 3.59 mg/L (≈ 6.47 µM)
- IC50 (A375): 3.53 mg/L (≈ 6.36 µM)
- IC50 (HT-29): 8.87 mg/L (≈ 16 µM)
- IC50 (A549): 6.83 mg/L (≈ 12.3 µM)
SMILES: CC(=O)O[C@@H]1CC[C@@]2(C)C(CC[C@]3(C)C2C(=O)C=C2C4[C@@H](C)[C@H](C)CC[C@]4(C)CC[C@]23C)[C@@]1(C)C(=O)NCCN (stereo partly shown) [Analog 21]
- cell cycle progression [2]: interrupts cell cycle progression at sub G1 phase
- capillary-like tube formation [3]: dose dependent inhibition
- MDA-MB-231 colony formation (MDA-MB-231 [4]): potent inhibition of clone formation
- phosphorylated AKT (ser 473) protein expression (AKT pathway): down regulating AKT phosphorylation
